Experiment [1] has as its system HT-29. The experiment can be described thus: Antiproliferative activity against human HT-29 cells by MTS assay. In kind it is functional, cell-based. For orientation: Formazan colour is commonly taken as a measure of viable cells.
The subject of a further experiment is MDA-MB-231. The experiment can be described thus: Antiproliferative activity against human MDA-MB-231 cells by MTS assay. In kind it is functional, cell-based.
Experiment [2] has as its system HT-29. The experiment can be described thus: Inhibition of microtubule formation in human HT-29 cells at 100 nM using Dm1a tubulin antibodies by confocal microscopy. The experiment is classed as cell-based.

SMILES strings stand for the structures. Active and inactive are the calls of the source. The rule behind the calls is not given here. Some results are limits rather than exact numbers.

`O=C(c1ccccc1)N1N=C(c2ccccn2)C[C@H]1c1ccccc1`: the IC50 in the experiment with HT-29 [1] and with MDA-MB-231 was more than 500 µM each time.

Take `c1ccc(C2CC(c3ccccn3)=NN2c2ccccc2)cc1` (stereo not given): the results for the IC50 with HT-29 [1] and in the experiment on MDA-MB-231 were 53.8 µM and 60.2 µM, respectively.

In the case of `COc1cc(C(=O)N2N=C(c3ccccn3)CC2c2cc(OC)c(OC)c(OC)c2)cc(OC)c1OC` (stereo not given), the values for the half-maximal inhibitory concentration (IC50) with HT-29 [1] and with MDA-MB-231 were 22.5 µM and 11.4 µM, respectively.

As to `COc1cc(/C=C/C(=O)c2ccccn2)cc(OC)c1OC`, the figures for the IC50 with HT-29 [1] and with MDA-MB-231 were 9.6 µM and 9.7 µM, respectively.

With `COc1cc(C2CC(c3ccccn3)=NN2c2ccccc2)cc(OC)c1OC` (stereo not given), the IC50 stood at 26.2 µM with HT-29 [1] and 4.36 µM in the experiment on MDA-MB-231.

Take `NC(=S)N1N=C(c2ccccn2)C[C@H]1c1ccccc1`: the results for the IC50 in the experiment on HT-29 [1] and in the experiment on MDA-MB-231 were 350 µM and 140 µM, respectively.

On to `COc1cc2c(c(OC)c1OC)-c1ccc(OC)c(=O)cc1[C@@H](NC(C)=O)CC2` [COLCHICINE], for which the IC50 with HT-29 [1] and with MDA-MB-231 was 0.008 µM each time. Further, the inhibition result in the experiment with HT-29 [2] is “Active”.

Broadly, the IC50 is the midpoint of a concentration-inhibition curve. Read a low IC50 as higher potency.

The record behind these values is ChEMBL document CHEMBL3217680, “Synthesis and antiproliferative activity of some 3-(pyrid-2-yl)-pyrazolines” (Medchemcomm, 2013).
